Source: patent US20240299385A1 (ReWind Therapeutics NV, priority 2021, published 2024)

Molecular target: T1, human GPR17 receptor (Homo sapiens, UniProt Q13304)
T1 construct: host or cells: HEK-293
Test: Calcium mobilization functional assay (Fluo-8, FLIPR TETRA) in HEK-293 hGPR17 (Gα-q assay)
Format: cell-based
Details: antagonism of MDL29,951 (~EC80) induced Ca2+ signal; cell line (HEK-293 hGPR17 or HEK-293 Suchi5 hGPR17) not given
How it was run: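 Fluo-8-loaded HEK-293 hGPR17 cells (60 min dye loading, room temperature) were preincubated with compound for twenty minutes, then challenged with agonist MDL29,951 at ~EC80, 500 nM. Intracellular calcium release via Gα-q was recorded as FLIPR fluorescence for a further 2 minutes; compounds tested in duplicate.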

T1 sequence (Q13304 whole entry): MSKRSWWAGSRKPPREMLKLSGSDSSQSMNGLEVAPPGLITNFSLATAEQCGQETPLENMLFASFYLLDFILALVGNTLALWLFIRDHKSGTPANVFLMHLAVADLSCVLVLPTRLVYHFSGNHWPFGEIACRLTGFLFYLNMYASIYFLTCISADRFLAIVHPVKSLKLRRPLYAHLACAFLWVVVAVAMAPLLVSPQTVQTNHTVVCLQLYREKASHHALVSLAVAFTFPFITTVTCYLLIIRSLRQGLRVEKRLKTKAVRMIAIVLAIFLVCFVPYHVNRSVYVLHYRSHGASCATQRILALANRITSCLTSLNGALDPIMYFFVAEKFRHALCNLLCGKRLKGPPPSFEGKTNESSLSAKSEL

Q: Which IC50 does the source give for `N#Cc1ccc(NS(=O)(=O)c2c[nH]c(-c3c(F)cc(F)cc3F)c2)c(F)c1` [Cpd 489, N-(4-cyano-2-fluorophenyl)-5-(2,4,6-trifluorophenyl)-1H-pyrrole-3-sulfonamide] here?
A: < 500 nM

Q: For `CC(=O)c1cccc(Cc2c[nH]cc2S(=O)(=O)Nc2ccc(C#N)cc2F)c1` [Cpd 490, 4-[(3-acetylphenyl)methyl]-N-(4-cyano-2-fluorophenyl)-1H-pyrrole-3-sulfonamide], which IC50 is on record?
A: 5000 to 50000 nM

Q: Which IC50 does the source give for `N#Cc1ccc(NS(=O)(=O)c2c[nH]c(Cc3ccccn3)c2)c(F)c1` [Cpd 491, N-(4-cyano-2-fluorophenyl)-5-(pyridin-2-ylmethyl)-1H-pyrrole-3-sulfonamide] here?
A: 5000 to 50000 nM

Q: How did the IC50 turn out when `N#Cc1cc(F)c(NS(=O)(=O)c2c[nH]c(-c3c(F)cc(F)cc3F)c2)cc1Cl` [Cpd 492, N-(5-chloro-4-cyano-2-fluorophenyl)-5-(2,4,6-trifluorophenyl)-1H-pyrrole-3-sulfonamide] was run?
A: 500 to 5000 nM

Q: For `O=S(=O)(Nc1nc(F)c(OCCF)cc1F)c1c[nH]c(-c2ccccc2)c1` [Cpd 494, N-[3,6-difluoro-5-(2-fluoroethoxy)pyridin-2-yl]-5-phenyl-1H-pyrrole-3-sulfonamide], which IC50 is on record?
A: < 500 nM

Q: Which IC50 does the source give for `Cc1cc(NS(=O)(=O)c2c[nH]c(-c3c(F)cc(F)cc3F)c2)c(F)cc1C#N` [Cpd 495, N-(4-cyano-2-fluoro-5-methylphenyl)-5-(2,4,6-trifluorophenyl)-1H-pyrrole-3-sulfonamide] here?
A: 500 to 5000 nM

Q: `O=S(=O)(Nc1cc(F)c(OCC(F)F)cc1F)c1c[nH]cc1-c1cccc(F)c1` [Cpd 496, N-[4-(2,2-difluoroethoxy)-2,5-difluorophenyl]-4-(3-fluorophenyl)-1H-pyrrole-3-sulfonamide] was tested. Which IC50 did it give?
A: 500 to 5000 nM

Q: For `N#Cc1cc(F)c(NS(=O)(=O)c2c[nH]cc2-c2cccc(F)c2)cc1F` [Cpd 497, N-(4-cyano-2,5-difluorophenyl)-4-(3-fluorophenyl)-1H-pyrrole-3-sulfonamide], which IC50 is on record?
A: < 500 nM

Q: How did the IC50 turn out when `Cc1nc(-c2cc(S(=O)(=O)Nc3ccc(C#N)cc3F)c[nH]2)ccc1F` [Cpd 498, N-(4-cyano-2-fluorophenyl)-5-(5-fluoro-6-methylpyridin-2-yl)-1H-pyrrole-3-sulfonamide] was run?
A: 500 to 5000 nM

Q: How did the IC50 turn out when `N#Cc1ccc(NS(=O)(=O)c2c[nH]c(-c3ccc(Cl)cn3)c2)c(F)c1` [Cpd 499, 5-(5-chloropyridin-2-yl)-N-(4-cyano-2-fluorophenyl)-1H-pyrrole-3-sulfonamide] was run?
A: 5000 to 50000 nM

Q: Which IC50 does the source give for `Cc1ccc(-c2cc(S(=O)(=O)Nc3ccc(C#N)cc3F)c[nH]2)nc1` [Cpd 500, N-(4-cyano-2-fluorophenyl)-5-(5-methylpyridin-2-yl)-1H-pyrrole-3-sulfonamide] here?
A: 5000 to 50000 nM

Q: For `O=S(=O)(Nc1nc(F)c(OCCF)cc1F)c1c[nH]cc1Cc1ccccc1` [Cpd 501, 4-benzyl-N-[3,6-difluoro-5-(2-fluoroethoxy)pyridin-2-yl]-1H-pyrrole-3-sulfonamide], which IC50 is on record?
A: 500 to 5000 nM

Q: Which IC50 does the source give for `N#Cc1ccc(NS(=O)(=O)c2c[nH]c(-c3cccc(F)n3)c2)c(F)c1` [Cpd 502, N-(4-cyano-2-fluorophenyl)-5-(6-fluoropyridin-2-yl)-1H-pyrrole-3-sulfonamide] here?
A: < 500 nM

Q: With `Cc1ccnc(-c2cc(S(=O)(=O)Nc3ccc(C#N)cc3F)c[nH]2)c1` [Cpd 503, N-(4-cyano-2-fluorophenyl)-5-(4-methylpyridin-2-yl)-1H-pyrrole-3-sulfonamide] as the molecule, how does the IC50 read?
A: 500 to 5000 nM

Q: With `Cc1cccc(-c2cc(S(=O)(=O)Nc3ccc(C#N)cc3F)c[nH]2)n1` [Cpd 504, N-(4-cyano-2-fluorophenyl)-5-(6-methylpyridin-2-yl)-1H-pyrrole-3-sulfonamide] as the molecule, how does the IC50 read?
A: < 500 nM

Q: With `O=C1C=C(c2cc(S(=O)(=O)Nc3cc(F)c(C(F)(F)F)cc3F)c[nH]2)CC1` [Cpd 505, N-(2,5-difluoro-4-(trifluoromethyl)phenyl)-5-(3-oxocyclopent-1-en-1-yl)-1H-pyrrole-3-sulfonamide] as the molecule, how does the IC50 read?
A: 5000 to 50000 nM

Q: For `CN(C)c1ccccc1-c1cc(S(=O)(=O)Nc2ccc(C#N)cc2F)c[nH]1` [Cpd 506, N-(4-cyano-2-fluorophenyl)-5-[2-(dimethylamino)phenyl]-1H-pyrrole-3-sulfonamide], which IC50 is on record?
A: 500 to 5000 nM

Q: With `N#Cc1ccc(NS(=O)(=O)c2c[nH]c(-c3cc(Cl)c(F)cc3F)c2)c(F)c1` [Cpd 507, 5-(5-chloro-2,4-difluorophenyl)-N-(4-cyano-2-fluorophenyl)-1H-pyrrole-3-sulfonamide] as the molecule, how does the IC50 read?
A: 500 to 5000 nM

Q: How did the IC50 turn out when `N#Cc1cc(F)c(NS(=O)(=O)c2c[nH]c(-c3cc(Cl)ccc3F)c2)cc1F` [Cpd 508, 5-(5-chloro-2-fluorophenyl)-N-(4-cyano-2,5-difluorophenyl)-1H-pyrrole-3-sulfonamide] was run?
A: < 500 nM

Q: `N#Cc1cc(F)c(NS(=O)(=O)c2c[nH]c(-c3ccc(F)cc3)c2)cc1F` [Cpd 509, N-(4-cyano-2,5-difluorophenyl)-5-(4-fluorophenyl)-1H-pyrrole-3-sulfonamide] was tested. Which IC50 did it give?
A: < 500 nM

Q: With `N#Cc1cc(F)c(NS(=O)(=O)c2c[nH]c(-c3ccc(F)cc3F)c2)cc1F` [Cpd 510, N-(4-cyano-2,5-difluorophenyl)-5-(2,4-difluorophenyl)-1H-pyrrole-3-sulfonamide] as the molecule, how does the IC50 read?
A: < 500 nM

Q: `Cc1cc(NS(=O)(=O)c2c[nH]c(-c3ccccc3F)c2)c(F)cc1C#N` [Cpd 511, N-(4-cyano-2-fluoro-5-methylphenyl)-5-(2-fluorophenyl)-1H-pyrrole-3-sulfonamide] was tested. Which IC50 did it give?
A: < 500 nM

Q: With `Cc1cc(NS(=O)(=O)c2c[nH]c(-c3cc(Cl)ccc3F)c2)c(F)cc1C#N` [Cpd 512, 5-(5-chloro-2-fluorophenyl)-N-(4-cyano-2-fluoro-5-methylphenyl)-1H-pyrrole-3-sulfonamide] as the molecule, how does the IC50 read?
A: < 500 nM

Q: With `Cc1cc(NS(=O)(=O)c2c[nH]c(-c3ccc(F)cc3)c2)c(F)cc1C#N` [Cpd 513, N-(4-cyano-2-fluoro-5-methylphenyl)-5-(4-fluorophenyl)-1H-pyrrole-3-sulfonamide] as the molecule, how does the IC50 read?
A: 500 to 5000 nM

Q: For `Cc1cc(NS(=O)(=O)c2c[nH]c(-c3ccc(F)cc3F)c2)c(F)cc1C#N` [Cpd 514, N-(4-cyano-2-fluoro-5-methylphenyl)-5-(2,4-difluorophenyl)-1H-pyrrole-3-sulfonamide], which IC50 is on record?
A: 500 to 5000 nM

Q: How did the IC50 turn out when `O=S(=O)(Nc1cc(F)c(OC(F)F)cc1F)c1c[nH]c(-c2cccc(Cl)n2)c1` [Cpd 515, 5-(6-chloropyridin-2-yl)-N-[4-(difluoromethoxy)-2,5-difluorophenyl]-1H-pyrrole-3-sulfonamide] was run?
A: < 500 nM

Q: How did the IC50 turn out when `O=S(=O)(Nc1cc(F)c(OC(F)F)cc1F)c1c[nH]c(-c2cccc(Br)n2)c1` [Cpd 516, 5-(6-bromopyridin-2-yl)-N-[4-(difluoromethoxy)-2,5-difluorophenyl]-1H-pyrrole-3-sulfonamide] was run?
A: < 500 nM

Q: With `O=S(=O)(Nc1cc(F)c(C(F)(F)F)cc1F)c1c[nH]c(-c2cccc3ccoc23)c1` [Cpd 517, 5-(1-benzofuran-7-yl)-N-[2,5-difluoro-4-(trifluoromethyl)phenyl]-1H-pyrrole-3-sulfonamide] as the molecule, how does the IC50 read?
A: 500 to 5000 nM

Q: How did the IC50 turn out when `COc1cscc1-c1cc(S(=O)(=O)Nc2cc(F)c(C(F)(F)F)cc2F)c[nH]1` [Cpd 518, N-[2,5-difluoro-4-(trifluoromethyl)phenyl]-5-(4-methoxythiophen-3-yl)-1H-pyrrole-3-sulfonamide] was run?
A: 500 to 5000 nM

Q: For `O=S(=O)(Nc1cc(F)c(C(F)(F)F)cc1F)c1c[nH]c(-c2cccc3c2OCC3)c1` [Cpd 519, N-[2,5-difluoro-4-(trifluoromethyl)phenyl]-5-(2,3-dihydro-1-benzofuran-7-yl)-1H-pyrrole-3-sulfonamide], which IC50 is on record?
A: 500 to 5000 nM

Q: Which IC50 does the source give for `O=C1CCC(c2cc(S(=O)(=O)Nc3cc(F)c(C(F)(F)F)cc3F)c[nH]2)C1` (stereo not shown) [Cpd 520, N-(2,5-difluoro-4-(trifluoromethyl)phenyl)-5-(3-oxocyclopentyl)-1H-pyrrole-3-sulfonamide] here?
A: 5000 to 50000 nM

Q: `CN(C)c1cccc(-c2cc(S(=O)(=O)Nc3ccc(C#N)cc3F)c[nH]2)c1` [Cpd 521, N-(4-cyano-2-fluorophenyl)-5-[3-(dimethylamino)phenyl]-1H-pyrrole-3-sulfonamide] was tested. Which IC50 did it give?
A: 5000 to 50000 nM

Q: `N#Cc1cc(F)c(NS(=O)(=O)c2c[nH]c(-c3ccccc3F)c2)cc1Cl` [Cpd 522, N-(5-chloro-4-cyano-2-fluorophenyl)-5-(2-fluorophenyl)-1H-pyrrole-3-sulfonamide] was tested. Which IC50 did it give?
A: < 500 nM

Q: Which IC50 does the source give for `N#Cc1cc(F)c(NS(=O)(=O)c2c[nH]c(-c3cc(Cl)ccc3F)c2)cc1Cl` [Cpd 523, N-(5-chloro-4-cyano-2-fluorophenyl)-5-(5-chloro-2-fluorophenyl)-1H-pyrrole-3-sulfonamide] here?
A: < 500 nM

Q: With `N#Cc1cc(F)c(NS(=O)(=O)c2c[nH]c(-c3ccc(F)cc3)c2)cc1Cl` [Cpd 524, N-(5-chloro-4-cyano-2-fluorophenyl)-5-(4-fluorophenyl)-1H-pyrrole-3-sulfonamide] as the molecule, how does the IC50 read?
A: 500 to 5000 nM

Q: Which IC50 does the source give for `N#Cc1cc(F)c(NS(=O)(=O)c2c[nH]c(-c3ccc(F)cc3F)c2)cc1Cl` [Cpd 525, N-(5-chloro-4-cyano-2-fluorophenyl)-5-(2,4-difluorophenyl)-1H-pyrrole-3-sulfonamide] here?
A: 500 to 5000 nM

Q: With `O=S(=O)(Nc1cc(F)c(OC(F)F)cc1F)c1c[nH]c(-c2ccccc2Cl)c1` [Cpd 526, 5-(2-chlorophenyl)-N-[4-(difluoromethoxy)-2,5-difluorophenyl]-1H-pyrrole-3-sulfonamide] as the molecule, how does the IC50 read?
A: 500 to 5000 nM

Q: How did the IC50 turn out when `O=S(=O)(Nc1cc(F)c(Br)cc1F)c1c[nH]c(-c2cccc(Cl)n2)c1` [Cpd 527, N-(4-bromo-2,5-difluorophenyl)-5-(6-chloropyridin-2-yl)-1H-pyrrole-3-sulfonamide] was run?
A: < 500 nM

Q: Which IC50 does the source give for `O=S(=O)(Nc1cc(F)c(Br)cc1F)c1c[nH]c(-c2cccc(Br)n2)c1` [Cpd 528, N-(4-bromo-2,5-difluorophenyl)-5-(6-bromopyridin-2-yl)-1H-pyrrole-3-sulfonamide] here?
A: < 500 nM

Q: How did the IC50 turn out when `CCc1cc(NS(=O)(=O)c2c[nH]c(-c3ccccc3)c2)c(F)cc1C#N` [Cpd 529, N-(4-cyano-5-ethyl-2-fluorophenyl)-5-phenyl-1H-pyrrole-3-sulfonamide] was run?
A: < 500 nM
